Results published in BindingDB's records for doi:10.7270/Q2736PBV (Broad Institute, 2009).

Molecular target: T1, Streptokinase A (Streptococcus pyogenes serotype M1, UniProt P10520)
T1 sequence (P10520 whole entry): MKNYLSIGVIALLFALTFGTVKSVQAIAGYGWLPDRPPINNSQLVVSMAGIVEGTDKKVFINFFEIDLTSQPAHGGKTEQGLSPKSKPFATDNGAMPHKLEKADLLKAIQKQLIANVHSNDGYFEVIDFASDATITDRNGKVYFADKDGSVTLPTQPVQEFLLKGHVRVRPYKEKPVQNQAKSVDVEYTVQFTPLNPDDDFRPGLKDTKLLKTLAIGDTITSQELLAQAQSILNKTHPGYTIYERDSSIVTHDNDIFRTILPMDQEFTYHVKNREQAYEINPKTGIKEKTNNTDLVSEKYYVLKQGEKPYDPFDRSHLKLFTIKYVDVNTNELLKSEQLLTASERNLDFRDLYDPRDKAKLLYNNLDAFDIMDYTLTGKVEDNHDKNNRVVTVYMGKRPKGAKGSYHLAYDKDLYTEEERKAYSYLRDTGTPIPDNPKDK
Assay: viability-normalized secreted streptokinase activity reduction – plasminogen activation absorbance, OD405, dose response (AID 1914)

Row | SMILES | EC50 [µM]
1 | O=C(O)c1ccc(N=NCc2ccc(OC(=O)c3cccc(Cl)c3)cc2)cc1 [4-[2-[[4-[(3-chlorophenyl)-oxomethoxy]phenyl]methylidene]hydrazinyl]benzoic acid] | > 150
2 | CCCCCCC(=O)NNC=C1C(=O)NC(=S)N(CCCC)C1=O [MLS000763126] | > 150
3 | COc1ccc(C2=N/C(=C\c3c(C)[nH]c4ccccc34)C(=O)O2)cc1 [(4Z)-2-(4-methoxyphenyl)-4-[(2-methyl-1H-indol-3-yl)methylidene]-1,3-oxazol-5-one] | > 150
4 | COC(=O)C1C(C)=NC2=C(C(=O)c3ccccc32)C1c1ccc(-c2ccc(C(=O)O)cc2)o1 (stereo unspecified) [4-{5-[3-(methoxycarbonyl)-2-methyl-5-oxo-4,5-dihydro-1H-indeno[1,2-b]pyridin-4-yl]-2-furyl}benzoic acid] | > 150
5 | CCCCCCCn1[nH]c(C)c(C(=O)c2ccccc2)c1=O [4-benzoyl-2-heptyl-5-methyl-2,4-dihydro-3H-pyrazol-3-one] | > 150
6 | C=CCN1C(=O)NC(=O)C(=C(C)Nc2ccc(N(CC)CC)cc2)C1=O [SMR000043704] | > 150
7 | CC(=O)c1cccc2c1NC(=C1Nc3ccccc3C1=O)C2=O [(2E)-7-ethanoyl-2-(3-oxidanylidene-1H-indol-2-ylidene)-1H-indol-3-one] | 116
8 | Cc1nn(-c2ccccc2)c(Cl)c1C1C2=C(CC(C)(C)CC2=O)OC(=N)C1C#N (stereo unspecified) [2-azanyl-4-(5-chloranyl-3-methyl-1-phenyl-pyrazol-4-yl)-7,7-dimethyl-5-oxidanylidene-6,8-dihydro-4H-chromene-3-carbonitrile] | > 150
9 | Clc1ccc(-c2ccc(CN=Nc3cc(N4CCOCC4)nc(N4CCOCC4)n3)o2)cc1 [MLS000527145] | > 150
10 | N#CC1C(=N)OC2=C(CCc3ccccc32)C1c1ccccc1Cl (stereo unspecified) [MLS000586146] | 11.9
11 | CCc1ccc2[nH]c(=O)c(C3c4ccc5cccnc5c4OC(=N)C3C#N)cc2c1 (stereo unspecified) | > 150
12 | CN1C(=O)C(=NNc2nc(-c3ccccc3)cs2)c2ccccc21 [SMR000243133] | 7.09
13 | O=C1NC(=S)N(C2CCCCC2)C(=O)C1=CNNC(=O)c1ccccc1 [N'-[(E)-(1-cyclohexyl-4,6-dioxo-2-sulfanylidene-1,3-diazinan-5-ylidene)methyl]benzohydrazide] | > 150
14 | Cc1[nH]c2ccccc2c1/C=C1\N=C(c2ccc(F)cc2)OC1=O [2-(4-fluorophenyl)-4-[(2-methyl-1H-indol-3-yl)methylene]-1,3-oxazol-5(4H)-one] | 16.6
15 | CN1c2ccsc2C(NNc2ccccc2)=CS1(=O)=O [N-[(1-methyl-2,2-dioxo-4-thieno[3,2-c]thiazinylidene)amino]aniline] | 4.12
16 | CCOC(=O)c1sc(N2C(=O)C(=O)C(C(=O)c3ccco3)C2c2cccc(Cl)c2)nc1C (stereo unspecified) | > 150
17 | O=C1C=CC([N+](=O)[O-])=CC1/C=N/NC(=O)C(O)(c1ccccc1)c1ccccc1 (stereo unspecified) | > 150
18 | CC1CC(C)(C)N2C(=O)/C(=N\NC(N)=S)c3cccc1c32 (stereo unspecified) [SMR000414933] | > 150
19 | N#CC1C(=N)SC(=N)C(C#N)C1c1c(Cl)cccc1Cl (stereo unspecified) [SMR000009709] | 93.5

Row | SMILES | EC50 [µM]
20 | CC(N=Nc1nc2ccccc2s1)c1ccc2c(c1)OCO2 (stereo unspecified) | > 150
21 | Cc1[nH]n(-c2nc3ccccc3[nH]2)c(=O)c1Cc1ccccc1 [MLS000762809] | > 150
22 | Cc1ccc(-c2nn(-c3ccccc3)cc2CN=O)cc1 [N-[[3-(4-methylphenyl)-1-phenylpyrazol-4-yl]methylidene]hydroxylamine] | > 150
23 | COC1=CC(CN=Nc2nc3ccccc3s2)C=C([N+](=O)[O-])C1=O (stereo unspecified) [MLS000777866] | > 150
24 | Cc1ccc(C(=O)C2C(=O)C(=O)N(Cc3ccco3)C2c2cccc(Br)c2)o1 (stereo unspecified) [2-(3-bromophenyl)-1-(2-furanylmethyl)-4-hydroxy-3-[(5-methyl-2-furanyl)-oxomethyl]-2H-pyrrol-5-one] | > 150
25 | N#CC(C(=O)c1ccc([N+](=O)[O-])o1)c1nc2ccccc2[nH]1 (stereo unspecified) | 27.6
26 | O=C1C=CC(N=Nc2ccc([N+](=O)[O-])cc2)C(O)=C1 (stereo unspecified) [MLS000530152] | 50
27 | Cc1ccc(C2C(C(=O)c3cc4ccccc4o3)C(=O)C(=O)N2c2cc(C)on2)cc1 (stereo unspecified) [MLS001147776] | 6.3
28 | COc1cccc(-n2c(O)c3[nH][nH]c(C(=O)CN4C(=O)c5ccccc5C4=O)c-3c2=O)c1 | > 150
29 | C=c1c(C#N)c(N)[nH]c2c(C#N)c(C)c(=Cc3ccc(C)cc3)c1=2 | 12.3
30 | CCOC(=O)c1ccc(NC(=O)Cc2sc(N=NCc3c[nH]c4ccccc34)nc2O)cc1 [MLS000722052] | > 150
31 | COC1=CC([N+](=O)[O-])=CC(/C=N/NC(=O)C(C)Nc2cccc(C)c2)C1=O (stereo unspecified) [N'-[(1E)-(2-hydroxy-3-methoxy-5-nitrophenyl)methylene]-2-[(3-methylphenyl)amino]propanohydrazide] | > 150
32 | Oc1ccc(CN=Nc2nc(-c3ccc(Cl)cc3)cc(C(F)(F)F)n2)cc1 [SMR000212812] | 16.3
33 | CN1C(=O)/C(=N\NC(=O)c2cc(-c3cccs3)nc3ccccc23)c2ccccc21 [SMR000242891] | > 150
34 | COC(=O)c1sc(N2C(=O)C(=O)C(C(=O)c3ccc(C)o3)C2c2ccc([N+](=O)[O-])cc2)nc1C (stereo unspecified) [methyl 2-[4-hydroxy-3-(5-methylfuran-2-carbonyl)-2-(4-nitrophenyl)-5-oxo-2H-pyrrol-1-yl]-4-methyl-1,3-thiazole-5-carboxylate] | > 150
35 | O=C1Nc2ccccc2SC1C=Nc1cccc(Cl)c1 (stereo unspecified) | > 150
36 | CCn1cc(C(=O)O)c(=O)c2cc(F)c(N=NCc3ccccc3[N+](=O)[O-])cc21 [SMR000171611] | > 150
37 | CCc1ccc2c(c1)=C(NNc1nc(-c3ccccc3)cs1)C(=O)N=2 [5-ethyl-1H-indole-2,3-dione 3-[(4-phenyl-1,3-thiazol-2(3H)-ylidene)hydrazone]] | > 150
38 | C[n+]1ccc(CN=Nc2nc(Cl)c(C#N)c(Cl)c2Cl)cc1 [2,4,5-trichloro-6-[2-[(1-methylpyridin-1-ium-4-yl)methylidene]hydrazinyl]pyridine-3-carbonitrile;chloride] | > 150

Row | SMILES | EC50 [µM]
39 | CCN1C(=O)C(C=NN=Cc2ccccc2)c2ccc(C3=NNC(=O)CC3)cc21 (stereo unspecified) [benzaldehyde {[1-ethyl-2-oxo-6-(6-oxo-1,4,5,6-tetrahydro-3-pyridazinyl)-1,2-dihydro-3H-indol-3-ylidene]methyl}hydrazone] | > 150
40 | O=C(Oc1cccc(CN=Nc2nc(Nc3ccccc3)nc(N3CCOCC3)n2)c1)c1ccco1 | > 150
41 | O=C(O)c1ccccc1N=NCc1cc(Br)cc(Br)c1O [2-[2-[(E)-(3,5-dibromo-6-oxocyclohexa-2,4-dien-1-ylidene)methyl]hydrazinyl]benzoic acid] | 32.4
42 | CCCc1sc(N=NCc2ccccn2)nc1-c1ccc(Br)cc1 [SMR000116777] | > 150
43 | O=C1C(=O)N(Cc2ccco2)C(c2cccc(Cl)c2)C1C(=O)c1ccco1 (stereo unspecified) [SMR000665558] | > 150
44 | Oc1nc(Nc2ccc(Cl)cc2)sc1Cc1cccc(Cl)c1Cl [2-(4-chloroanilino)-5-(2,3-dichlorobenzyl)-2-thiazolin-4-one] | 131
45 | CC(C)COC(=O)c1cccc2c1-c1ccccc1C2N=O (stereo unspecified) [isobutyl 9-(hydroxyimino)-9H-fluorene-4-carboxylate] | 50
46 | CCOC(=O)C1=C(Cc2ccc(CC)cc2)C(=O)c2ccccc2C1=O [(2E,3Z)-2-[ethoxy(hydroxy)methylidene]-3-[(4-ethylphenyl)methylidene]naphthalene-1,4-dione] | > 150
47 | Oc1nc(N=NCc2cccs2)sc1Cc1ccc(Cl)c(Cl)c1 [5-[(3,4-dichlorophenyl)methyl]-2-[2-(thiophen-2-ylmethylidene)hydrazinyl]-4-thiazolone] | > 150
48 | Oc1ccccc1CN=Nc1nc(O)c(Cc2ccc(F)cc2)s1 [5-[(4-fluorophenyl)methyl]-2-[2-[(E)-(6-oxidanylidenecyclohexa-2,4-dien-1-ylidene)methyl]hydrazinyl]-1,3-thiazol-4-one] | > 150
49 | CCCOc1ccc(C(=O)C2C(=O)C(=O)N(c3ccccn3)C2c2ccc(OC)cc2)cc1C (stereo unspecified) [(4Z)-4-[hydroxy-(3-methyl-4-propoxyphenyl)methylidene]-5-(4-methoxyphenyl)-1-(2-pyridinyl)pyrrolidine-2,3-dione] | 103
50 | C=c1[nH]n(-c2ccccc2)c(=O)c1=C(C=Cc1cccc(OC)c1OC)c1ccc(Br)cc1 [4-[1-(4-Bromo-phenyl)-3-(2,3-dimethoxy-phenyl)-allylidene]-5-methyl-2-phenyl-2,4-dihydro-pyrazol-3-one] | > 150
51 | CCOc1cc(CN=Nc2cccc(C(=O)O)c2)ccc1OC(=O)c1ccccc1 [3-[(N''E)-N''-(4-benzoyloxy-3-ethoxy-benzylidene)hydrazino]benzoic acid] | > 150
52 | COc1ccc(CN=Nc2cc(C)nc(-n3nc(C)cc3C)n2)c(OC)c1 [MLS000589396] | > 150
53 | CC(=NNC(=N)Sc1cc(O)n(-c2ccc(Cl)c(Cl)c2)c1O)c1cccs1 [1-(3,4-dichlorophenyl)-2,5-dioxo-3-pyrrolidinyl 2-[1-(2-thienyl)ethylidene]hydrazinecarbimidothioate] | 7.44
54 | Cc1cc(=O)n(-c2nc(-c3ccccc3)cs2)[nH]1 [SMR000175888] | 10
55 | Cn1cnnc1SCc1ccc(C(=O)N/N=C2\C(=O)N(Cc3ccc(Cl)cc3)c3ccccc32)cc1 [N-[(Z)-[1-[(4-chlorophenyl)methyl]-2-oxidanylidene-indol-3-ylidene]amino]-4-[(4-methyl-1,2,4-triazol-3-yl)sulfanylmethyl]benzamide] | 18
56 | COc1ccc(C2C(C(=O)c3ccccc3)C(C)=Nc3nc4ccccc4n32)c(OC)c1 (stereo unspecified) [MLS000586747] | > 150
